Measured values reported in paper PMC5362750, “Discovery of Potent, Selective, and Orally Bioavailable Small-Molecule Modulators of the Mediator Complex-Associated Kinases CDK8 and CDK19” (Journal of Medicinal Chemistry, 2016).

Tests used:
CK1DELTA = CK1DELTA (Homo sapiens, UniProt P48730); assay: Kinase panel (Millipore); format: biochemical; conditions: 1 µM, ATP at Km
sst1 (h) = sst1 (h) (Homo sapiens, UniProt P30872); assay: CEREP binding assay; conditions: agonist radioligand, read-out: % Inhibition of Control Specific Binding
CDK1/CYCLINB = CDK1/CYCLINB (Homo sapiens, UniProt P06493); conditions: 1 µM, ATP at Km
CDK1/CYCLINB, sequence (P06493 whole entry): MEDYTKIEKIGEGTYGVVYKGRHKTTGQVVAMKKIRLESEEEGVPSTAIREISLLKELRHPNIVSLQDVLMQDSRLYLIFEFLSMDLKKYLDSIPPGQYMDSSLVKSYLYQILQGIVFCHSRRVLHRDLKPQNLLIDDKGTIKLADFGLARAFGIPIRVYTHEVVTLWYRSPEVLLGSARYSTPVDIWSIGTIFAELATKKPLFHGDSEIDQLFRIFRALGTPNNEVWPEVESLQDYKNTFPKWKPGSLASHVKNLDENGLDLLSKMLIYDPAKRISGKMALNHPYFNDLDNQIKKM
CDK1/CYCLINB, sequence (P14635 whole entry partner): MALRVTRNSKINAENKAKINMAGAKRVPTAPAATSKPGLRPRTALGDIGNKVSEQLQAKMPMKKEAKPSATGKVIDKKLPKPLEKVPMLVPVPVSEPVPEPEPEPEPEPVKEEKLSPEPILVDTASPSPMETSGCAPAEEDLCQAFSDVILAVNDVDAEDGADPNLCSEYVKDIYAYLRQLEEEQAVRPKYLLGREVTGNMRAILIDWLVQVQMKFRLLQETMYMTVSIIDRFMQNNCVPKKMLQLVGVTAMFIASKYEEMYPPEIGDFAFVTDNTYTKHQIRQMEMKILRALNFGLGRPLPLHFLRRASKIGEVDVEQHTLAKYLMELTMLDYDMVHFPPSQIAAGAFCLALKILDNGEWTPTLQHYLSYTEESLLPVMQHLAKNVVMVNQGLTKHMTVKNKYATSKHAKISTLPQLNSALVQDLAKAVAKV

MST3 = biological target: T1, MST3 (Homo sapiens, UniProt Q9Y6E0); assay: Kinase panel (Millipore); format: biochemical; conditions: 1 µM, ATP at Km
T1 construct: purchased Millipore (KinaseProfiler) kinase panel

GRK7 = GRK7 (Homo sapiens, UniProt Q8WTQ7); assay: Kinase panel (Millipore); format: biochemical; conditions: 1 µM, ATP at Km
PAK2 = biological target: T2, PAK2 (Homo sapiens, UniProt Q13177); assay: Kinase panel (Millipore); format: biochemical; conditions: 1 µM, ATP at Km
T2 construct: purchased Millipore (KinaseProfiler) kinase panel

AT2 (h) = biological target: T3, AT2 (h) (Homo sapiens, UniProt P50052); assay: CEREP binding assay; conditions: agonist radioligand, read-out: % Inhibition of Control Specific Binding
T3 construct: purchased Millipore (KinaseProfiler) kinase panel

ARK5 = biological target: T4, ARK5 (Homo sapiens, UniProt O60285); assay: Kinase panel (Millipore); format: biochemical; conditions: 1 µM, ATP at Km
T4 construct: purchased Millipore (KinaseProfiler) kinase panel
T4 sequence (O60285 whole entry): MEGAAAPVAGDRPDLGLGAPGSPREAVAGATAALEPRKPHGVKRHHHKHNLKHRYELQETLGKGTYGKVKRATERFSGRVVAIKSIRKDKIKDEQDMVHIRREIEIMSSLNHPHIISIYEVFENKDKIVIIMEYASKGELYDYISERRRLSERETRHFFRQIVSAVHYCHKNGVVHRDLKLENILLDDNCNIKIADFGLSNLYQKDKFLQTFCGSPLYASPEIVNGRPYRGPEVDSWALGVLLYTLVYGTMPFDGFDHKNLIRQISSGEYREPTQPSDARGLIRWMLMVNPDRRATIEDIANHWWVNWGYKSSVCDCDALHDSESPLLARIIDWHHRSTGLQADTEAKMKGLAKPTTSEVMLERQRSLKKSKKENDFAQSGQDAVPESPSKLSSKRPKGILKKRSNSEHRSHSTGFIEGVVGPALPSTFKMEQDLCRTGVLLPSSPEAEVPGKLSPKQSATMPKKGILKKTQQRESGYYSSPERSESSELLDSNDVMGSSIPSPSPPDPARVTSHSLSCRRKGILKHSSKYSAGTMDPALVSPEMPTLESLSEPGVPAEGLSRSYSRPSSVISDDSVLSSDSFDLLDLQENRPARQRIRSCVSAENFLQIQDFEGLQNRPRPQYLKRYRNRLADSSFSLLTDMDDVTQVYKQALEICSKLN

5-HT4e (h) = 5-HT4e (h) (Homo sapiens, UniProt Q13639); assay: biochemical; conditions: read-out: % Inhibition of Control Specific Binding
FLT3 = biological target: T5, FLT3 (Homo sapiens, UniProt P36888); assay: Kinase panel (Millipore); format: biochemical; conditions: 1 µM, ATP at Km
T5 construct: purchased Millipore (KinaseProfiler) kinase panel

CKIT = biological target: T6, CKIT (Homo sapiens, UniProt P10721); assay: Kinase panel (Millipore); format: biochemical; conditions: 1 µM, ATP at Km
T6 construct: purchased Millipore (KinaseProfiler) kinase panel

beta 3 (h) = biological target: T7, beta 3 (h) (Homo sapiens, UniProt P13945); assay: CEREP binding assay; conditions: antagonist radioligand, read-out: % Inhibition of Control Specific Binding
T7 construct: purchased Millipore (KinaseProfiler) kinase panel
T7 sequence (P13945 whole entry): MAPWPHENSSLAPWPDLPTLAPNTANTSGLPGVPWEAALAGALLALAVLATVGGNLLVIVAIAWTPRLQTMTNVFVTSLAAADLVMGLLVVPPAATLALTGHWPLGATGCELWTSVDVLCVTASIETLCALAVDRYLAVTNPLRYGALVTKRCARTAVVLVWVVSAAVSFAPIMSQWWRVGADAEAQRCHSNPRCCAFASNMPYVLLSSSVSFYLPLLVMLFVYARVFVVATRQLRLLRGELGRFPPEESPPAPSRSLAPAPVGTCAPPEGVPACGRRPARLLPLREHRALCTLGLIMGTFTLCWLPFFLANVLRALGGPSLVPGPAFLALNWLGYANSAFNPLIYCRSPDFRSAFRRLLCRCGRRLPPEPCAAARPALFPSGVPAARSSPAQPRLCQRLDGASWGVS

P70S6K = biological target: T8, P70S6K (Homo sapiens, UniProt P23443); assay: Kinase panel (Millipore); format: biochemical; conditions: 1 µM, ATP at Km
T8 construct: purchased Millipore (KinaseProfiler) kinase panel

ITK = biological target: T9, ITK (Homo sapiens, UniProt Q08881); assay: Kinase panel (Millipore); format: biochemical; conditions: 1 µM, ATP at Km
T9 construct: purchased Millipore (KinaseProfiler) kinase panel

[…](V561D) = […](V561D) (Homo sapiens, UniProt P16234, V561D); conditions: 1 µM, ATP at Km
M4 (h) = M4 (h) (Homo sapiens, UniProt P08173); assay: biochemical; conditions: read-out: % Inhibition of Control Specific Binding
[1] = tested on: glycine (strychnine-insensitive); conditions: 10 µM, antagonist radioligand
5-HT2A (h) = 5-HT2A (h) (Homo sapiens, UniProt P28223); assay: biochemical; conditions: read-out: % Inhibition of Control Specific Binding
motilin (h) = motilin (h) (Homo sapiens, UniProt O43193); assay: CEREP binding assay; conditions: agonist radioligand, read-out: % Inhibition of Control Specific Binding
TIE2 = biological target: T10, TIE2 (Homo sapiens, UniProt Q02763); assay: Kinase panel (Millipore); format: biochemical; conditions: 1 µM, ATP at Km
T10 construct: purchased Millipore (KinaseProfiler) kinase panel
T10 sequence (Q02763 23-1124): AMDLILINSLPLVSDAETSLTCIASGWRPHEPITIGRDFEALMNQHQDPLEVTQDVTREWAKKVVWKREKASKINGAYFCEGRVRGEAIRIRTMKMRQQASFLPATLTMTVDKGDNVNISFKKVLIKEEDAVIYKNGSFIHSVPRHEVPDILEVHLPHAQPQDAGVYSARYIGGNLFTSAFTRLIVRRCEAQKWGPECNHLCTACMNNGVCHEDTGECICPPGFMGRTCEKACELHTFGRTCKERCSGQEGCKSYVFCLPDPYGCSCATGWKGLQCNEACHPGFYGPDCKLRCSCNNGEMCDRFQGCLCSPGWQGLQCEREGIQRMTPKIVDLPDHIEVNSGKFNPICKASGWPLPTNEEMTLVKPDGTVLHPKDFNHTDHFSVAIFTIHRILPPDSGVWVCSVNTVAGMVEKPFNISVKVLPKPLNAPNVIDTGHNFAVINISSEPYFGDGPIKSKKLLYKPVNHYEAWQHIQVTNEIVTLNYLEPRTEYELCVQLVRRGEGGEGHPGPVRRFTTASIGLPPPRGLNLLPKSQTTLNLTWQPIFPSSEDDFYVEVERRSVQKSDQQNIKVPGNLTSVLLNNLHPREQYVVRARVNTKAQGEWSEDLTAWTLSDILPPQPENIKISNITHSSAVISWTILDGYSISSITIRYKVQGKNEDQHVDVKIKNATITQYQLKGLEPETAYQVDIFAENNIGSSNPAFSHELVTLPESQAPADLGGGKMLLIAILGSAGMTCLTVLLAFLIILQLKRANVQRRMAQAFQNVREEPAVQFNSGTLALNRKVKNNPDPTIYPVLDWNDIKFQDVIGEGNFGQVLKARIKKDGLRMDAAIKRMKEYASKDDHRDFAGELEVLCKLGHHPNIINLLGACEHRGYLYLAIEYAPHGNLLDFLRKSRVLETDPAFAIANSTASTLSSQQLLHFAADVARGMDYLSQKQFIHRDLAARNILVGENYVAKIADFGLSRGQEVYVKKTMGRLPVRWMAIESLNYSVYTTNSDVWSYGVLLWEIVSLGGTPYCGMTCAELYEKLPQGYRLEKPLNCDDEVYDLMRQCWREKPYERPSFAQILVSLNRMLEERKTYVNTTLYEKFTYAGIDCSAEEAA

GABA transporter = conditions: 10 µM, antagonist radioligand
SRPK1 = biological target: T11, SRPK1 (Homo sapiens, UniProt Q96SB4); assay: Kinase panel (Millipore); format: biochemical; conditions: 1 µM, ATP at Km
T11 construct: purchased Millipore (KinaseProfiler) kinase panel

SRC(T341M) = SRC(T341M) (Homo sapiens, UniProt P12931, T341M); conditions: 1 µM, ATP at Km
GR (h) = biological target: T12, GR (h) (Homo sapiens, UniProt P04150); assay: CEREP binding assay; conditions: agonist radioligand, read-out: % Inhibition of Control Specific Binding
T12 construct: CEREP

DAPK2 = DAPK2 (Homo sapiens, UniProt Q9UIK4); assay: Kinase panel (Millipore); format: biochemical; conditions: 1 µM, ATP at Km
ABL (Q252H) = ABL (Q252H) (Homo sapiens, UniProt P00519, Q252H); conditions: 1 µM, ATP at Km
EPHA8 = biological target: T13, EPHA8 (Homo sapiens, UniProt P29322); assay: Kinase panel (Millipore); format: biochemical; conditions: 1 µM, ATP at Km
T13 construct: purchased Millipore (KinaseProfiler) kinase panel

MLK1 = biological target: T14, MLK1 (Homo sapiens, UniProt P80192); assay: Kinase panel (Millipore); format: biochemical; conditions: 1 µM, ATP at Km
T14 construct: purchased Millipore (KinaseProfiler) kinase panel

TSSK2 = biological target: T15, TSSK2 (Homo sapiens, UniProt Q96PF2); assay: Kinase panel (Millipore); format: biochemical; conditions: 1 µM, ATP at Km
T15 construct: purchased Millipore (KinaseProfiler) kinase panel

NEK7 = NEK7 (Homo sapiens, UniProt Q8TDX7); assay: Kinase panel (Millipore); format: biochemical; conditions: 1 µM, ATP at Km
IKKBETA = biological target: T16, IKKBETA (Homo sapiens, UniProt O14920); assay: Kinase panel (Millipore); format: biochemical; conditions: 1 µM, ATP at Km
T16 construct: purchased Millipore (KinaseProfiler) kinase panel

BTK(R28H) = BTK(R28H) (Homo sapiens, UniProt Q06187, R28H); conditions: 1 µM, ATP at Km
BTK(R28H), sequence (Q06187 whole entry R28H): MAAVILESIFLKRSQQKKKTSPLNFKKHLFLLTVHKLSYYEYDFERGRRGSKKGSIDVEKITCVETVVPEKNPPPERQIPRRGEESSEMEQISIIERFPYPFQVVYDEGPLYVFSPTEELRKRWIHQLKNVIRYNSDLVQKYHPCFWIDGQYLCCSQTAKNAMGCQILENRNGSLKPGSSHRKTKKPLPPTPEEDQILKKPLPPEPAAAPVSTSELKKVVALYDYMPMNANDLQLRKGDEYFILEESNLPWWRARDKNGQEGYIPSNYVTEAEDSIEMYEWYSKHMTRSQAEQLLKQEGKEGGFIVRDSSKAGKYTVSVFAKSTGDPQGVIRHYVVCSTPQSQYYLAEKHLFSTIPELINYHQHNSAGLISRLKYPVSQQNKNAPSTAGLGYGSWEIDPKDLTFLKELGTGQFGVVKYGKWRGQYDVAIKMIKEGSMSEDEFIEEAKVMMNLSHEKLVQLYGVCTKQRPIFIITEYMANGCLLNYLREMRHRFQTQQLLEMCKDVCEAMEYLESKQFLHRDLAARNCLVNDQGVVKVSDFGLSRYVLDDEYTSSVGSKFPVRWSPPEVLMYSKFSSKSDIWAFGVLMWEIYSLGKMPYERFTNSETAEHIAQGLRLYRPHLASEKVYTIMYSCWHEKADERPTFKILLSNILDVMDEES

in vivo = conditions: NCr athymic, mouse, po, 30 mg/kg
PKCIOTA = biological target: T17, PKCIOTA (Homo sapiens, UniProt P41743); assay: Kinase panel (Millipore); format: biochemical; conditions: 1 µM, ATP at Km
T17 construct: purchased Millipore (KinaseProfiler) kinase panel
T17 sequence (P41743 whole entry): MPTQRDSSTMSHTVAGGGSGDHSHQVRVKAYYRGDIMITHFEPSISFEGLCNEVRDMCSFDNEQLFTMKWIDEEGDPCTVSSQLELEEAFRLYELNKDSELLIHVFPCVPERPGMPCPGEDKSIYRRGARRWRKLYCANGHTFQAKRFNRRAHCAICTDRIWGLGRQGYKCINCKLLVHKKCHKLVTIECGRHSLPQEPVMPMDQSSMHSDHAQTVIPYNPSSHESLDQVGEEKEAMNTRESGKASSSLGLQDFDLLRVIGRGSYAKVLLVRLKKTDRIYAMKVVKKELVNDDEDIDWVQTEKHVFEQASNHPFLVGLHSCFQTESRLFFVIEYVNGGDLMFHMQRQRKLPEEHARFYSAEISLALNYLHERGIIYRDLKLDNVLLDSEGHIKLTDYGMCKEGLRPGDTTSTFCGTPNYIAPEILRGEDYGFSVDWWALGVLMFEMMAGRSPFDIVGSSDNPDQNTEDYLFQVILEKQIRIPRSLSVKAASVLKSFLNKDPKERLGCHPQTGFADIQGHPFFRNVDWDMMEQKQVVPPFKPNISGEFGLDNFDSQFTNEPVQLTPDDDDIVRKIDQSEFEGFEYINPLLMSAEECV

CHK2(I157T) = CHK2(I157T) (Homo sapiens, UniProt O96017, I157T); conditions: 1 µM, ATP at Km
MC1 = biological target: T18, MC1 (Mus musculus, UniProt Q01727); assay: CEREP binding assay; conditions: agonist radioligand, read-out: % Inhibition of Control Specific Binding
T18 construct: purchased Millipore (KinaseProfiler) kinase panel
T18 sequence (Q01727 whole entry): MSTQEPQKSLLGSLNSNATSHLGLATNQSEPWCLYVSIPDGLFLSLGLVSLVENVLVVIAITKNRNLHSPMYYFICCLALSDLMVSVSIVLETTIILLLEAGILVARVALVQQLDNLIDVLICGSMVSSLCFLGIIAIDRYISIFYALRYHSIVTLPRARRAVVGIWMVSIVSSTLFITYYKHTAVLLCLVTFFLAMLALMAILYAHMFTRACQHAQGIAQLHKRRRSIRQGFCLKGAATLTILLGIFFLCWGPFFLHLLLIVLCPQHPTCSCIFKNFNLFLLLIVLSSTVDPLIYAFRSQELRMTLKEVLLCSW

ASK1 = ASK1 (Homo sapiens, UniProt Q99683); assay: Kinase panel (Millipore); format: biochemical; conditions: 1 µM, ATP at Km
EPHB2 = biological target: T19, EPHB2 (Homo sapiens, UniProt P29323); assay: Kinase panel (Millipore); format: biochemical; conditions: 1 µM, ATP at Km
T19 construct: purchased Millipore (KinaseProfiler) kinase panel

AR (h) = conditions: 10 µM, agonist radioligand

CK1DELTA, sequence (P48730 whole entry): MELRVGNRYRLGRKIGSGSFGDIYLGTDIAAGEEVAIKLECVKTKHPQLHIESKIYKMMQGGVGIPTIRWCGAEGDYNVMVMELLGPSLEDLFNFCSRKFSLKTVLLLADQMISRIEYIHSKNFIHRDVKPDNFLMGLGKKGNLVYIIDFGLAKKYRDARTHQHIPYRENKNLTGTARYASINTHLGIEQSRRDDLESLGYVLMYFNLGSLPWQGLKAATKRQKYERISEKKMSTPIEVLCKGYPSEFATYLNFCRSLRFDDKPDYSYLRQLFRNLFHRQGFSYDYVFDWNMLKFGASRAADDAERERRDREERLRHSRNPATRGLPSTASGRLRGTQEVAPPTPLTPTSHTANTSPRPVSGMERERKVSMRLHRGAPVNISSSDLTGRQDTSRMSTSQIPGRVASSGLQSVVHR

Cn1ncc2cc(-c3cnc(N)c(Cl)c3N3CCC4(CCNC4=O)CC3)ccc21 [Compound 109, 8-(2-Amino-3-chloro-5-(1-methyl-1H-indazol-5-yl)pyridin-4-yl)-2,8-diazaspiro[4.5]decan-1-one]
% effect (CK1DELTA): 18%
inhibition at 10 µM (sst1 (h)): -4%
% effect (CDK1/CYCLINB): -12%
% effect (MST3): -11%
% effect (GRK7): -1%
% effect (PAK2): -10%
inhibition at 10 µM (AT2 (h)): 6%
% effect (ARK5): 10%
inhibition at 10 µM (5-HT4e (h)): -3%
% effect (FLT3): 7%
% effect (CKIT): -5%
inhibition at 10 µM (beta 3 (h)): -16%
% effect (P70S6K): -1%
% effect (ITK): -9%
% effect ([…](V561D)): 0%
inhibition at 10 µM (M4 (h)): 22%
% Inhibition of Control Specific Binding [1]: -3%
inhibition at 10 µM (5-HT2A (h)): -10%
inhibition at 10 µM (motilin (h)): 12%
% effect (TIE2): 14%
% Inhibition of Control Specific Binding (GABA transporter): 3%
% effect (SRPK1): -8%
% effect (SRC(T341M)): -8%
inhibition at 10 µM (GR (h)): -1%
% effect (DAPK2): -7%
% effect (ABL (Q252H)): -10%
% effect (EPHA8): -9%
% effect (MLK1): -10%
% effect (TSSK2): 9%
% effect (NEK7): 15%
% effect (IKKBETA): -2%
% effect (BTK(R28H)): 2%
concentration at 1 h (in vivo; Free Plasma conc.): 523 nM
concentration at 2 h (in vivo; Free Plasma conc.): 240 nM
concentration at 6 h (in vivo; Free Plasma conc.): 29 nM
concentration at 24 h (in vivo; Free Plasma conc.): 3 nM
concentration at 1 h (in vivo; Free tumor conc.): 171 nM
concentration at 2 h (in vivo; Free tumor conc.): 120 nM
concentration at 6 h (in vivo; Free tumor conc.): 55 nM
concentration at 24 h (in vivo; Free tumor conc.): 28 nM
concentration at 1 h (in vivo; Total Plasma conc.): 14900 nM
concentration at 2 h (in vivo; Total Plasma conc.): 6860 nM
concentration at 6 h (in vivo; Total Plasma conc.): 822 nM
concentration at 24 h (in vivo; Total Plasma conc.): 90 nM
concentration at 1 h (in vivo; Total tumor conc.): 4880 nM
concentration at 2 h (in vivo; Total tumor conc.): 3420 nM
concentration at 6 h (in vivo; Total tumor conc.): 1570 nM
concentration at 24 h (in vivo; Total tumor conc.): 796 nM
% effect (PKCIOTA): -5%
% effect (CHK2(I157T)): -5%
inhibition at 10 µM (MC1): -8%
% effect (ASK1): 17%
% effect (EPHB2): -3%
% Inhibition of Control Specific Binding (AR (h)): -2%
